# What was measured:
# [1] = Stability in Simulated Gastric Fluid (SGF); assay type: in vitro ADME; set-up: key: % parent compound remaining relative to 0-minute sample
# Procedure: (§1) Simulated gastric fluid (SGF) and Simulated intestinal fluid (SIF) stability are in vitro metrics indicating the ability of a compound to pass through the gastrointestinal tract […] or completely digested. An undigested or nearly undigested compound will usually survive gut transit long enough to be absorbed into the systemic circulation. Greater than 50% remaining intact compound at 1 hour indicates a relatively stable molecule that will likely be absorbed in the gut.
# (§2) For each test compound, samples at a final concentration of 2 μg/mL are prepared in respective blank simulated gastric fluid with pepsin (pH 1.2) and simulated intestinal fluid with pancreatin (pH 6.8). All samples are incubated at 37° C. on a 150-rpm orbital shaker, and an aliquot is removed at predetermined time points (0 to 60 minutes). Samples are precipitated with three volumes of acetonitrile containing propranolol as internal standard, and centrifuged for 10 min at 2,000 g before LC-MS/MS analysis of the supernatant solutions. Percent parent compound remaining is determined relative to 0-minute incubation samples. If a sufficient number of time points are available, the degradation half-life is calculated based on the natural log of % compound remaining vs. time plot.
# [2] = Stability in Simulated Intestinal Fluid (SIF); assay type: in vitro ADME; set-up: key: % parent compound remaining relative to 0-minute sample
# Procedure: as §1, §2
# Plasma Stability = assay type: in vitro ADME, human
# Procedure: Plasma stability estimates the ability of a compound to remain intact in the blood. For prodrugs that are intended to be hydrolyzed by plasma enzymes a certain level of instability in plasma indicates the compound is probably breaking down to the parent drug. A stability range of 25-75% remaining parent compound after 1 hour in plasma indicates the compound is likely breaking down to the parent drug molecule and a patient will be exposed to this parent molecule.
# Assessment of plasma stability was carried out by individual incubations of drug candidates in fresh human plasma at a concentration of 1 μM for 1 hour at 37° C. After which, the samples were de-proteinized by addition of 2 volumes of acetonitrile containing 0.1% formic acid and internal standard, vortex mixed for 2 minutes and centrifuged at 4,000 rpm for 10 minutes to pellet precipitated protein. The resulting supernatant containing the drug candidates was diluted 5-fold with water containing 0.1% formic acid and submitted to LCMS/MS analysis. All determinations were done in triplicate. Plasma stability was expressed as percent of control remaining.
# See Pelletier et al. ACS Med. Chem. Lett. 2018, 9, 752-756.
# [3] = simulated gastric fluid, at 1 h
# [4] = simulated intestinal fluid, at 1 h
# [5] = bare number, unit or time not given
# [6] = simulated gastric fluid, remaining at 1 h
# [7] = simulated intestinal fluid, remaining at 1 h
molecule,measurement,setting,value
Cc1ccccc1N(C)C(=O)OCn1ccc2c1c(=O)[nH]c(=S)n2CCOC(C)C [Example 251],SGF,[1]; [3],99% remaining
same,SIF,[2]; [4],100% remaining
same,human Plasma stability,"Plasma Stability; human plasma, at 1 h",96% remaining
Cc1cccc(N(C)C(=O)OCn2ccc3c2c(=O)[nH]c(=S)n3CCOC(C)C)c1 [Example 252],SGF,[1]; [3],100% remaining
same,SIF,[2]; [4],80% remaining
same,human Plasma stability,"Plasma Stability; human plasma, at 1 h",100% remaining
"CC(C)OCCn1c(SCOC(=O)[C@@H](N)Cc2ccccc2)nc(=O)c2[nH]ccc21.O=C(O)C(F)(F)F [Example 310, trifluoroacetic acid ({4-oxo-1-[2-(propan-2-yloxy)ethyl]-1H,4H,5H-pyrrolo[3,2-d]pyrimidin-2-yl}sulfanyl)methyl (2S)-2-amino-3-phenylpropanoate]",SGF,[1]; % remaining @ 1 h,99% @ 1 h
same,SIF,[2]; % remaining @ 1 h,32% @ 1 h
same,human Plasma stability,Plasma Stability; % remaining @ 1 h,4% @ 1 h
"CC(C)C[C@@H](N)C(=O)OCn1ccc2c1c(=O)[nH]c(=S)n2CCOC(C)C.O=C(O)C(F)(F)F [Example 324, trifluoroacetic acid {4-oxo-1-[2-(propan-2-yloxy)ethyl]-2-sulfanylidene-1H,2H,3H,4H,5H-pyrrolo[3,2-d]pyrimidin-5-yl}methyl (2R)-2-amino-4-methylpentanoate]",SGF,[1]; % remaining @ 1 h,98%@ 1 h
same,SIF,[2]; % remaining @ 1 h,24%@ 1 h
same,human Plasma stability,Plasma Stability; % remaining @ 1 h,1%@ 1 h
"CC(C)OCCn1c(=S)[nH]c(=O)c2c1ccn2COC(=O)CCCCOC(=O)CNC(=O)OC(C)(C)C [Example 328, {4-oxo-1-[2-(propan-2-yloxy)ethyl]-2-sulfanylidene-1H,2H,3H,4H,5H-pyrrolo[3,2-d]pyrimidin-5-yl}methyl 5-[(2-{[(tert-butoxy)carbonyl]amino}acetyl)oxy] pentanoate]",SGF,[1]; % remaining @ 1 h,97%@ 1 h
same,SIF,[2]; % remaining @ 1 h,6%@ 1 h
same,human Plasma stability,Plasma Stability; % remaining @ 1 h,11%@ 1 h
"CC(C)OCCn1c(=S)n(COC(=O)CCCCOC(=O)[C@@H](N)C(C)C)c(=O)c2c1ccn2COC(=O)CCCCOC(=O)[C@@H](N)C(C)C.O=C(O)C(F)(F)F.O=C(O)C(F)(F)F [Example 337, bis(trifluoroacetic acid) (3-{[(5-{[(2S)-2-amino-3-methylbutanoyl]oxy}pentanoyl)oxy]methyl}-4-oxo-1-[2-(propan-2-yloxy)ethyl]-2-sulfanylidene-1H,2H,3H,4H,5H-pyrrolo[3,2-d]pyrimidin-5-yl)methyl 5-{[(2S)-2-amino-3-methylbutanoyl]oxy}pentanoate]",SGF,[1]; [5],98
same,SIF,[2]; [5],30
same,human Plasma stability,Plasma Stability; % remaining @ 1 h,60% remaining
"CC(C)OCCn1c(=S)[nH]c(=O)c2c1ccn2COC(=O)CCCCOC(=O)[C@H](N)C(C)C.O=C(O)C(F)(F)F [Example 338, trifluoroacetic acid {4-oxo-1-[2-(propan-2-yloxy)ethyl]-2-sulfanylidene-1H,2H,3H,4H,5H-pyrrolo[3,2-d]pyrimidin-5-yl}methyl 5-{[(2R)-2-amino-3-methylbutanoyl]oxy}pentanoate]",SGF,[1]; [5],99
same,SIF,[2]; [5],3
same,human Plasma stability,Plasma Stability; % remaining @ 1 h,4% remaining
"CC(C)OCCn1c(=S)[nH]c(=O)c2c1ccn2COC(=O)OCCOCCN.O=C(O)C(F)(F)F [Example 354, trifluoroacetic acid 2-(2-aminoethoxy)ethyl {4-oxo-1-[2-(propan-2-yloxy)ethyl]-2-sulfanylidene-1H,2H,3H,4H,5H-pyrrolo[3,2-d]pyrimidin-5-yl}methyl carbonate]",SGF,[1]; [6],99% remaining
same,SIF,[2]; [7],3% remaining
same,human Plasma stability,"Plasma Stability; human plasma, remaining at 1 h",1% remaining
"CC(C)OCCn1c(SCOC(=O)N(C)CCOCCN)nc(=O)c2[nH]ccc21.O=C(O)C(F)(F)F [Example 380, trifluoroacetic acid ({4-oxo-1-[2-(propan-2-yloxy)ethyl]-1H,4H,5H-pyrrolo[3,2-d]pyrimidin-2-yl}sulfanyl) methyl N-[2-(2-aminoethoxy)ethyl]-N-methylcarbamate]",SGF,[1]; [6],100% remaining
same,SIF,[2]; [7],99% remaining
same,human Plasma stability,"Plasma Stability; human plasma, remaining at 1 h",85% remaining
"CC(C)OCCn1c(SCOC(=O)N(C)CCOCCN)nc(=O)c2c1ccn2COC(=O)N(C)CCOCCN.O=C(O)C(F)(F)F.O=C(O)C(F)(F)F [Example 382, bis(trifluoroacetic acid) (2-{[({[2-(2-aminoethoxy)ethyl](methyl)carba-moyl}oxy)methyl]sulfanyl}-4-oxo-1-[2-(propan-2-yloxy)ethyl]-1H,4H,5H-pyrrolo[3,2-d]pyrimidin-5-yl)methyl N-[2-(2-aminoethoxy)ethyl]-N-methylcarbamate]",SGF,[1]; [6],100% remaining
same,SIF,[2]; [7],99% remaining
same,human Plasma stability,"Plasma Stability; human plasma, remaining at 1 h",98% remaining
"(2R)-2-{[(tert-butoxy)carbonyl]amino}-3-methyl-N-{2-[2-(2-{[{{4-oxo-1-[2-(propan-2-yloxy)ethyl]-2-sulfanylidene-1H,2H,3H,4H,5H-pyrrolo[3,2-d]pyrimidin-5-yl}methoxy)carbonyl]oxy}ethoxy)eth-oxy]ethyl}butanamide [Example 377]",SGF,"[1]; simulated gastric fluid, bare number, unit or time not given",83
same,SIF,"[2]; simulated intestinal fluid, bare number, unit or time not given",11
same,human Plasma stability,"Plasma Stability; human plasma, remaining at 1 h",8% remaining
"({4-oxo-1-[2-(propan-2-yloxy)ethyl]-1H,4H,5H-pyrrolo[3,2-d]pyrimidin-2 yl}sulfanyl)methyl N-butylcarbamate [Example 185]",SGF,"[1]; % remaining at 1 h in simulated gastric fluid, the 15th table",78% @ 1 h
same,SIF,"[2]; % remaining at 1 h in simulated intestinal fluid, the 15th table",67% @ 1 h
same,human Plasma stability,"Plasma Stability; % remaining at 1 h in human plasma, the 15th table",96% @ 1 h
"N-[2-(2-aminoethoxy)ethyl]-4-oxo-1-[2-(propan-2-yloxy)ethyl]-2-sulfanylidene-1H, 2H,3H,4H,5H-pyrrolo[3,2-d]pyrimidine-5-carboxamide; trifluoroacetic acid [Example 376]",SGF,[1]; [6],98% remaining
same,SIF,[2]; [7],99% remaining
same,human Plasma stability,"Plasma Stability; human plasma, remaining at 1 h",95% remaining
"bis(trifluoroacetic acid) 5-{[2-({[(5-{[(2R)-2-amino-4-methylpentanoyl]oxy}penta-noyl)oxy]methyl}sulfanyl)-4-oxo-1-[2-(propan-2-yloxy)ethyl]-1H,4H,5H-pyrrolo[3,2-d]pyrimidin-5-yl]methoxy}-5-oxopentyl (2R)-2-amino-4-methylpentanoate [Example 351]",SGF,[1]; [6],69% remaining
same,SIF,[2]; [7],14% remaining
same,human Plasma stability,"Plasma Stability; human plasma, remaining at 1 h",99% remaining
"butoxy)carbonyl]amino}ethoxy)eth-yl](methyl)carbamoyl}oxy)methyl]sul-fanyl}-4-oxo-1-[2-(propan-2-yloxy)ethyl]-1H,4H,5H-pyrrolo[3,2-d]pyrimidin-5-yl)methoxy]carbonyl}(methyl)ami-no)ethoxy]ethyl}carbamate [Example 381]",SGF,[1]; [6],82% remaining
same,SIF,[2]; [7],97% remaining
same,human Plasma stability,"Plasma Stability; human plasma, remaining at 1 h",97% remaining
"tert-butyl N-(2-{2-[methyl({[{{4-oxo-1-[2-(propan-2-yloxy)ethyl]-1H,4H,5H-pyrrolo[3,2-d]pyrimidin-2-yl}sulfanyl)methoxy]carbonyl})ami-no]ethoxy}ethyl)carbamate [Example 379]",SGF,[1]; [6],93% remaining
same,SIF,[2]; [7],69% remaining
same,human Plasma stability,"Plasma Stability; human plasma, remaining at 1 h",0% remaining
"{4-oxo-1-[2-(propan-2-yloxy)ethyl]-2-sulfanylidene-1H,2H,3H,4H,5H-pyrrolo[3,2-d]pyrimidin-5-yl}methyl (2R)-1-[2-(2-{[(tert-butoxy)carbonyl]amino}acetamido) acetyl]pyrrolidine-2-carboxylate [Example 405]",SGF,[1]; % remaining after 1 h in simulated gastric fluid,83% remaining
same,SIF,[2]; % remaining after 1 h in simulated intestinal fluid,81% remaining
same,human Plasma stability,Plasma Stability; % remaining after 1 h in human plasma,1% remaining

# — US20240067651A1 (Biohaven Therapeutics Ltd., priority 2019, published 2024)
